Data published in article PMC10328743, “5-Nitro-3-(2-(4-phenylthiazol-2-yl)hydrazineylidene)indolin-2-one derivatives inhibit HIV-1 replication by a multitarget mechanism of action” (Frontiers in Cellular and Infection Microbiology, 2023).
Like-named read-outs stand apart in the source and are kept apart here.

Legend:
[1] = molecular target: T1, HIV-1 RT-associated RDDP (Human immunodeficiency virus type 1 group M subtype B, UniProt P04585); test: HIV-1 RNA-dependent DNA polymerase activity determination; type: biochemical
T1 construct: The 1:1 ratio between the p66/p51 subunits was also verified; His tag (implied only by Ni-NTA IMAC purification); made in house; host or cells: Escherichia coli M15
Protocol: (§1) Escherichia coli strain M15 containing the p6HRT-prot vector (provided by Stuart Le Grice laboratory (NCI Frederick)) was grown to an optical density at 600 nm of 0.7 and induced with 1.7 mM of isopropyl β-D-1-thiogalactopyranoside (IPTG) for 4 h. Protein purification was carried out with a BioLogic LP system (Bio-Rad, Hercules, CA, USA) using a combination of immobilized metal affinity chromatography (IMAC) and ion exchange chromatography. Cell pellets were resuspended in lysis buffer (50 mM of sodium phosphate buffer, pH 7.8, containing 0.5 mg/mL of lysozyme), incubated on ice for 20 min, and, after the addition of NaCl to a final concentration of 0.3 M, were sonicated and centrifuged at 30,000 ×g for 1 h. The supernatant was loaded onto a Ni^2+-NTA-Sepharose column pre-equilibrated with loading buffer (50 mM of sodium phosphate buffer, pH 7.8, containing 0.3 M of NaCl, 10% glycerol, and 10 mM of imidazole) and washed thoroughly with wash buffer (50 mM of sodium phosphate buffer, pH 6.0, containing 0.3 M of NaCl, 10% glycerol, and 80 mM of imidazole). RT was eluted with an imidazole gradient in the wash buffer (0–0.5 M). Fractions were collected, and protein purity was checked by sodium dodecyl sulfate–polyacrylamide gel electrophoresis (SDS-PAGE) and found to be higher than 90%. The 1:1 ratio between the p66/p51 subunits was also verified. Enzyme-containing fractions were pooled and diluted 1:1 with 50 mM of sodium phosphate buffer, pH 7.0, containing 10% glycerol, and then loaded into a Hi-trap heparin HP GE (Healthcare LifeScience) pre-equilibrated with 10 column volumes of loading buffer (50 mM of sodium phosphate buffer, pH 7.0, containing 10% glycerol, and 150 mM of NaCl). The column was then washed with loading buffer, and the RT was eluted with Elute Buffer 2 (50 mM of sodium phosphate, pH 7.0, 10% glycerol, 1 M of NaCl). Fractions were collected, and the protein was dialyzed and stored in a buffer containing 50 mM of Tris-HCl, pH 7.0, 25 mM of NaCl, 1 mM of EDTA, and 50% glycerol. Catalytic activities and protein concentrations were determined. Enzyme-containing fractions were pooled, and aliquots were stored at −80°C.
RDDP activity was measured as previously reported in 25-µl volume containing 60 mM of Tris‐HCl buffer, pH 8.1, 8 mM of MgCl2, 60 mM of KCl, 13 mM of DTT, 2.5 µM of poly(A)-oligo(dT), 100 µM of dTTP, increasing concentrations of inhibitors, whose dilution were made in water, and different amounts of enzymes according to a linear range of the dose–response curve. The reaction mixture was incubated for 30 min at 37°C and then stopped by the addition of EDTA. Reaction products were detected by pico green addition and measured with a multilabel counter plate reader Victor 3, equipped with filters for 502/523 nm.

[2] = molecular target: T2, HIV-1 RT-associated RNase H (Human immunodeficiency virus type 1 group M subtype B, UniProt P04585); test: HIV-1 DNA polymerase-independent RNase H activity determination; type: biochemical; settings: wt HIV-1 RT, three independent experiments, average ± standard deviation; for IC50: read-out: RNase H IC50
T2 construct: The 1:1 ratio between the p66/p51 subunits was also verified; His tag (implied only by Ni-NTA IMAC purification); made in house; host or cells: Escherichia coli M15
Protocol: as §1
HIV RT-associated RNase H activity was measured as described ([Corona et al., 2016b]) in a 100-µl reaction volume containing 50 mM of Tris-HCl buffer, pH 7.8, 6 mM of MgCl2, 1 mM of dithiothreitol (DTT), 80 mM of KCl, 0.25 µM of hybrid RNA/DNA 5′-[…]-Fluorescin-3′ (high-performance liquid chromatography (HPLC), dry, QC: Mass Check) (available from Metabion) 5′-Dabcyl-[…]-3′ (HPLC, dry, QC: Mass Check), increasing concentrations of inhibitors, whose dilution were made in water, and different amounts of enzymes according to a linear range of the dose–response curve. The reaction mixture was incubated for 1 h at 37°C and stopped by the addition of EDTA, and products were measured with a multilabel counter plate reader Victor 3 equipped with filters for 490/528 nm.

[3] = tested on: HIV-1; test: HIV-1 replication inhibition in MT4 cells; type: cell-based; settings: Human immunodeficiency virus 1, MT4, viral replication in MT4 cells; three independent experiments, average ± standard deviation; read-out: HIV-1 EC50
Protocol: (§2) HIV-1 replication was carried out in MT4 cells as previously reported ([Corona et al., 2016a]) using a molecular clone derived from the pNL4-3 ([Thierry et al., 2015]). A total of 120 ng of p24^gag antigen per 10^6 cells, corresponding to a multiplicity of infection (m.o.i.) of 0.3, was used for infection. […] Flow cytometry analysis was performed on a FACSCalibur flow cytometer (BD Biosciences, San Jose, CA, USA), and the results were analyzed using the […] software.

[4] = Viability of infected MT4 cells (cytotoxicity); type: cell-based; settings: human, MT4 cells infected with HIV-1; infected MT4 cells viability; three independent experiments, average ± standard deviation
Protocol: as §2

[5] = wt HIV-1 RT, three independent experiments, average ± standard deviation, read-out: RDDP IC50

For `Cn1c(-c2ccc(C#N)cc2)cs/c1=N\N=C1/C(=O)Nc2ccc([N+](=O)[O-])cc21` [6c], the IC50 [1, 5] was 12.1 ± 1.6 µM, the “RNase H IC50” value [2] was “active only toward the RDDP function” and the IC50 [2] was 100 ± 5 µM.
With `O=C1Nc2ccc([N+](=O)[O-])cc2/C1=N/Nc1nc(-c2ccc(F)cc2F)cs1` [7a] the IC50 [1, 5] was 11.5 ± 0.5 µM and the IC50 [2] was 6 ± 0.1 µM.
With `O=C1Nc2ccc(Cl)cc2/C1=N/Nc1nc(-c2ccc(F)cc2F)cs1` [7b] the IC50 [1, 5] was 10 ± 1 µM and the IC50 [2] was 6 ± 1.5 µM.
Work on `O=C1Nc2ccc([N+](=O)[O-])cc2/C1=N/Nc1nc(-c2cccc([N+](=O)[O-])c2)cs1` [8a] yielded an IC50 [1, 5] of 18.5 ± 0.5 µM and an IC50 [2] of 6.5 ± 0.5 µM.
In the case of `O=C1Nc2ccc(Cl)cc2/C1=N/Nc1nc(-c2cccc([N+](=O)[O-])c2)cs1` [8b], the IC50 [1, 5] is reported as 72 ± 13 µM and the IC50 [2] is reported as 22 ± 1 µM.
With `Cn1c(-c2cccc([N+](=O)[O-])c2)cs/c1=N\N=C1/C(=O)Nc2ccc([N+](=O)[O-])cc21` [8c] the IC50 [1, 5] was 8.7 ± 1.5 µM, the “RNase H IC50” value [2] was “active only toward the RDDP function” and the IC50 [2] was 100 ± 20 µM.
`O=C1Nc2ccc([N+](=O)[O-])cc2/C1=N/Nc1nc(-c2ccc(Cl)c(Cl)c2)cs1` [9a] gave an IC50 [1, 5] of 11.5 ± 0.5 µM, an EC50 [3] greater than 100 µM and a CC50 [4] greater than 100 µM. The IC50 [2] was 6.5 ± 0.5 µM.
Work on `Cn1c(-c2ccc(Cl)c(Cl)c2)cs/c1=N\N=C1/C(=O)Nc2ccc([N+](=O)[O-])cc21` [9c] yielded an IC50 [1, 5] of 15.1 ± 0.5 µM, an EC50 [3] greater than 5 µM and a CC50 [4] of 5 ± 1.3 µM. The IC50 [2] was 1.9 ± 0.7 µM.
`Cc1ccc(-c2csc(NN=C3C(=O)Nc4ccc(Cl)cc43)n2)cc1` [10b] showed an IC50 [1, 5] of 18 ± 0.7 µM, an EC50 [3] greater than 100 µM and a CC50 [4] greater than 100 µM. The IC50 [2] was 10 ± 1.4 µM.
In the case of `Cc1ccc(-c2cs/c(=N\N=C3/C(=O)Nc4ccc([N+](=O)[O-])cc43)n2C)cc1` [10c], the IC50 [1, 5] is reported as 16.9 ± 2.3 µM, the EC50 [3] is reported as greater than 10 µM and the CC50 [4] is reported as 10 ± 2.7 µM. For the same compound, the IC50 [2] was 6.8 ± 1.4 µM.
Work on `COc1ccc(-c2csc(N/N=C3\C(=O)Nc4ccc([N+](=O)[O-])cc43)n2)cc1` [11a] yielded an IC50 [1, 5] of 14.5 ± 0.5 µM, an EC50 [3] greater than 100 µM and a CC50 [4] greater than 100 µM. For the same compound, the IC50 [2] was 8.5 ± 0.6 µM.
Compound `COc1ccc(-c2csc(N/N=C3\C(=O)Nc4ccc(Cl)cc43)n2)cc1` [11b] has an IC50 [1, 5] of 16.2 ± 2.8 µM, an EC50 [3] greater than 70 µM and a CC50 [4] of 70 ± 9 µM. It also gave an IC50 [2] of 7 ± 1 µM.
`COc1ccc(-c2cs/c(=N\N=C3/C(=O)Nc4ccc([N+](=O)[O-])cc43)n2C)cc1` [11c] showed an IC50 [1, 5] of 11.2 ± 2.2 µM, an EC50 [3] greater than 2 µM and a CC50 [4] of 2 ± 0.4 µM. It also gave an IC50 [2] of 4 ± 1.4 µM.
In the case of `O=C1Nc2ccc([N+](=O)[O-])cc2/C1=N/Nc1nc(-c2ccccc2)cs1` [12a], the IC50 [1] is reported as 13 ± 2 µM, the EC50 [3] is reported as greater than 100 µM and the CC50 [4] is reported as greater than 100 µM. The IC50 [2] was 6 ± 1 µM.
In the case of `O=C1Nc2ccc(Cl)cc2/C1=N/Nc1nc(-c2ccccc2)cs1` [12b], the IC50 [1, 5] is reported as 9.4 ± 1.1 µM, the EC50 [3] is reported as greater than 70 µM and the CC50 [4] is reported as 70 ± 5 µM. The IC50 [2] was 5.4 ± 0.6 µM.
In the case of `Cn1c(-c2ccccc2)cs/c1=N\N=C1/C(=O)Nc2ccc([N+](=O)[O-])cc21` [12c], the IC50 [1, 5] is reported as 8.1 ± 0.1 µM, the EC50 [3] is reported as greater than 10 µM and the CC50 [4] is reported as 10 ± 1.2 µM. For the same compound, the IC50 [2] was 3.6 ± 0.8 µM.
